The record followed here is patent publication US11149031B2, “Substituted N-(3-fluoropropyl)-pyrrolidine compounds, processes for their preparation and therapeutic uses thereof” (SANOFI, priority 2016, dated 2021).

Assay [1] concerns the target His6-ERα298-554 D538G mutant (ERα ligand-binding domain) (Homo sapiens (Human), UniProt P03372, D538G). The assay can be described thus: Test A: biochemical antagonist activity, LanthaScreen TR-FRET ERα coactivator assay, D538G mutant. As to conditions: read-out: Antagonism D538G IC50. The method in brief:
(§1)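 TR-FRET 520:495 nm emission ratio read after overnight room-temperature incubation; IC50 derived by 4-parameter logistic fit. Mix: 0.5 nM receptor LBD, 0.5 nM Tb-His6 antibody, 250 nM PGC1a peptide, 3 nM or 10 nM estradiol, pH 7.4 phosphate buffer.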
For orientation: In TR-FRET formats the signal depends on donor and acceptor labels being close together.

For assay [2], the target named is His6-ERα298-554 Y537S mutant (ERα ligand-binding domain) (Homo sapiens (Human), UniProt P03372, Y537S). The assay can be described thus: Test A: biochemical antagonist activity, LanthaScreen TR-FRET ERα coactivator assay, Y537S mutant. Conditions: read-out: Antagonism Y537S IC50. The procedure, abridged:
as §1

Assay [3] deals with MCF7 cells (breast tumor cells) WT. The assay can be described thus: Test B: cell proliferation/viability assay (CellTiter-Glo) on MCF7 WT. Format: cell-based. As to conditions: Homo sapiens, MCF7, 168 h, 7 days of compound exposure. The procedure, abridged: (§2)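 Parental MCF7 or MCF7 lines transfected with Tyr 537 Ser or Asp 538 Gly ER mutants (selected for estradiol-independent growth) were grown in phenol red-free MEM with 5% charcoal dextran-stripped FBS. Cells were treated with 9-point 1:5 dilutions (3-0.000001 μM final) for 7 days, then read by CellTiter-Glo luminescence.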
A general note: ATP-based viability assays read luminescence as a measure of living cells.

Assay [4] has as its system MCF7 cells expressing mutant estrogen receptor Tyr 537 Ser. The assay can be described thus: Test B: cell proliferation/viability assay (CellTiter-Glo) on MCF7 Tyr 537 Ser mutant. Conditions: Homo sapiens, MCF7, 168 h, MCF7 cells expressing ER Tyr 537 Ser mutant, 7 days of compound exposure, read-out: proliferation MCF7 Y537S IC50. It is filed as cell-based. The procedure, abridged:
as §2

The target of assay [5] is ERα in MCF7 cells (Homo sapiens (Human), UniProt P03372). The assay can be described thus: Test C: estrogen receptor degradation activity, ERα in cell western assay in MCF7 cells. Format: cell-based. As to conditions: for DC50: 4 hours post compound addition, ERα in cell western, read-out: Degradation IC50; for % Degradation at 3 μM: 4 hours, relative to fulvestrant. The method in brief: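 MCF7 cells in phenol red-free MEM alpha with 5% charcoal-dextran stripped FBS were treated 4 h with compound (9-point 1:5 dilutions, 3–0.000018 μM final; fulvestrant 0.1 μM as positive control). Fixed cells were immunostained for ERα (Alexa 488) and counterstained with Syto-64 for DNA.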

The test system of assay [6] is MCF7 cells expressing mutant estrogen receptor Asp 538 Gly. The assay can be described thus: Test B: cell proliferation/viability assay (CellTiter-Glo) on MCF7 Asp 538 Gly mutant. It is filed as cell-based. Conditions: Homo sapiens, MCF7, 168 h, MCF7 cells expressing ER Asp 538 Gly mutant, 7 days of compound exposure, read-out: proliferation MCF7 D538G IC50. The method in brief: as §2

The target of assay [7] is His6-ERα298-554 WT (ERα ligand-binding domain) (Homo sapiens (Human), UniProt P03372). The assay can be described thus: Test A: biochemical antagonist activity, LanthaScreen TR-FRET ERα coactivator assay, WT. As to conditions: read-out: Antagonism WT IC50. The procedure, abridged: as §1
[8] abbreviates: asterisk (*): protocol using 10 nM estradiol.

The structures appear in SMILES notation. Where two headings read alike, the source gives them in different places.

His6-ERα298-554 D538G mutant (ERα ligand-binding domain), sequence (P03372 298-554 D538G): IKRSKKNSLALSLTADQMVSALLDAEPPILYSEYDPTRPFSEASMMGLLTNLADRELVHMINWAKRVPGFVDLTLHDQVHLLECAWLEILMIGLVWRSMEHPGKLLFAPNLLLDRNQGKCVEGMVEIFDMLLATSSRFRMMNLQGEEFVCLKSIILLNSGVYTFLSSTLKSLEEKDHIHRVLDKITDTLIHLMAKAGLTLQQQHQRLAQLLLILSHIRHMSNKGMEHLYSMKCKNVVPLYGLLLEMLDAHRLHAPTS
His6-ERα298-554 Y537S mutant (ERα ligand-binding domain), sequence (P03372 298-554 Y537S): as the sequence (P03372 298-554 D538G) above, with Y240S, G241D counted along it
ERα in MCF7 cells, sequence (P03372 whole entry): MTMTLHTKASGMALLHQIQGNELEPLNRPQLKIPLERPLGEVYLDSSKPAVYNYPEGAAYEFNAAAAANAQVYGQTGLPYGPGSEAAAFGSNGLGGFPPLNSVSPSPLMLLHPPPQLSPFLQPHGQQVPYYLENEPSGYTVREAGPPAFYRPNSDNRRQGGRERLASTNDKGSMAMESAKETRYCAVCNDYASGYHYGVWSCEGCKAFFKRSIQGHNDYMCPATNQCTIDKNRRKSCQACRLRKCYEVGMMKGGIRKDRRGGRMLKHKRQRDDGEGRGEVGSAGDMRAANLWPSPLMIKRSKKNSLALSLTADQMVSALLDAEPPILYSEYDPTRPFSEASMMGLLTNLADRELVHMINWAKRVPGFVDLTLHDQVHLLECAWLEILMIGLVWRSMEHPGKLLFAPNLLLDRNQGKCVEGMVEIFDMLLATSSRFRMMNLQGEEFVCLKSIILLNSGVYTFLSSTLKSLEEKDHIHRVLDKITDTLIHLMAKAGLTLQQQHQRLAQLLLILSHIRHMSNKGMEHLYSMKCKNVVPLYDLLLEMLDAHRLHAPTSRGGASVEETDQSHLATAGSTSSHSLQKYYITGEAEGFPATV
His6-ERα298-554 WT (ERα ligand-binding domain), sequence (P03372 298-554): as the sequence (P03372 298-554 D538G) above, with G241D counted along it

Consider `Oc1ccc2c(c1)SCC(c1ccc(CF)cc1)=C2c1ccc(O[C@H]2CCN(CCCF)C2)cc1` [Example 61, 3-[4-(fluoromethyl)phenyl]-4-[4-[(3S)-1-(3-fluoropropyl)pyrrolidin-3-yl]oxyphenyl]-2H-thiochromen-7-ol], for which the IC50 in assay [1] (setting [8]) stood at 686 nM; in assay [2] (setting [8]) it was 437 nM; in assay [3], 2 nM; in assay [4], 17 nM; in assay [6], 0.6 nM; in assay [7] (setting [8]) it was 37 nM. The DC50 in assay [5] was determined as 0.2 nM. Moreover, the “% Degradation at 3 μM” value in assay [5] was 82%.
Consider `Oc1ccc2c(c1)SCC(c1ccc(C(F)F)cc1F)=C2c1ccc(O[C@H]2CCN(CCCF)C2)cc1` [Example 62, 3-[4-(difluoromethyl)-2-fluoro-phenyl]-4-[4-[(3S)-1-(3-fluoropropyl)pyrrolidin-3-yl]oxyphenyl]-2H-thiochromen-7-ol], for which the IC50 in assay [1] (setting [8]) was 523 nM; in assay [2] (setting [8]), 271 nM; in assay [3], 0.4 nM; in assay [4], 6 nM; in assay [6] it was 0.2 nM; in assay [7] (setting [8]) it was 27 nM. Further, the DC50 in assay [5] is 0.2 nM. Besides, the “% Degradation at 3 μM” value in assay [5] was determined as 80%.
As to `CCOc1ccc(C2=C(c3ccc(O[C@H]4CCN(CCCF)C4)cc3)c3ccc(O)cc3SC2)c(F)c1Cl` [Example 63, 3-(3-chloro-4-ethoxy-2-fluoro-phenyl)-4-[4-[(3S)-1-(3-fluoropropyl)pyrrolidin-3-yl]oxyphenyl]-2H-thiochromen-7-ol], the IC50 was greater than 4000 nM in assay [1] (setting [8]); 2450 nM in assay [2] (setting [8]); 5 nM in assay [3]; greater than 999 nM in assay [4]; 5 nM in assay [6]; 318 nM in assay [7] (setting [8]). For the same compound, the DC50 in assay [5] was 0.3 nM. In addition, the “% Degradation at 3 μM” value in assay [5] stood at 86%.
As for `Cc1ccc(C2=C(c3ccc(O[C@H]4CCN(CCCF)C4)cc3)c3ccc(O)cc3SC2)c(F)c1F` [Example 64, 3-(2,3-difluoro-4-methyl-phenyl)-4-[4-[(3S)-1-(3-fluoropropyl)pyrrolidin-3-yl]oxyphenyl]-2H-thiochromen-7-ol], the IC50 in assay [1] (setting [8]) amounted to 492 nM; in assay [2] (setting [8]) it was 204 nM; in assay [3], 1 nM; in assay [4], 5 nM; in assay [6], 0.7 nM; in assay [7] (setting [8]) it was 24 nM. Also, the DC50 in assay [5] was 0.2 nM. In assay [5], the “% Degradation at 3 μM” value is 81%.
Regarding `CC(C)(C)OC(=O)Nc1ccc(C2=C(c3ccc(O[C@H]4CCN(CCCF)C4)cc3)c3ccc(O)cc3SC2)c(F)n1` [Example 65, tert-butyl N-[6-fluoro-5-[4-[4-[(3S)-1-(3-fluoropropyl)pyrrolidin-3-yl]oxyphenyl]-7-hydroxy-2H-thiochromen-3-yl]-2-pyridyl]carbamate], the IC50 in assay [1] (setting [8]) is greater than 4000 nM; in assay [2] (setting [8]) it was greater than 4000 nM; in assay [3], 21 nM; in assay [4], 572 nM; in assay [6], 21 nM; in assay [7] (setting [8]) it was 1220 nM. Further, in assay [5], the DC50 came out at 38 nM. Further, in assay [5], the “% Degradation at 3 μM” value came to 71%.
In the case of `Oc1ccc2c(c1)SCC(c1ccc(SC(F)(F)F)cc1)=C2c1ccc(O[C@H]2CCN(CCCF)C2)cc1` [Example 66, 4-[4-[(3S)-1-(3-fluoropropyl)pyrrolidin-3-yl]oxyphenyl]-3-[4-(trifluoromethylsulfanyl)phenyl]-2H-thiochromen-7-ol], the IC50 in assay [1] (protocol with 3 nM estradiol) turned out to be 1800 nM; in assay [2] (protocol with 3 nM estradiol), 362 nM; in assay [3], 2 nM; in assay [4], 8 nM; in assay [6], 2 nM; in assay [7] (protocol with 3 nM estradiol), 59 nM. For the same compound, the DC50 in assay [5] was determined as 0.2 nM. Moreover, in assay [5], the “% Degradation at 3 μM” value amounted to 84%.
Regarding `Oc1ccc2c(c1)SCC(c1ccc3ncccc3c1)=C2c1ccc(O[C@H]2CCN(CCCF)C2)cc1` [Example 67, 4-[4-[(3S)-1-(3-fluoropropyl)pyrrolidin-3-yl]oxyphenyl]-3-(6-quinolyl)-2H-thiochromen-7-ol], the IC50 in assay [1] (setting [8]) was 1810 nM; in assay [2] (setting [8]) it was 1280 nM; in assay [3] it was 12 nM; in assay [4], 86 nM; in assay [6], 16 nM; in assay [7] (setting [8]), 120 nM. In assay [5], the DC50 stood at 1 nM. In addition, the “% Degradation at 3 μM” value in assay [5] is 90%.
Regarding `CCOc1nccc(C2=C(c3ccc(O[C@H]4CCN(CCCF)C4)cc3)c3ccc(O)cc3SC2)c1F` [Example 69, 3-(2-ethoxy-3-fluoro-4-pyridyl)-4-[4-[(3S)-1-(3-fluoropropyl)pyrrolidin-3-yl]oxyphenyl]-2H-thiochromen-7-ol], the IC50 in assay [1] (setting [8]) is greater than 4000 nM; in assay [2] (setting [8]) it was greater than 4000 nM; in assay [3], 0.2 nM; in assay [4] it was 0.8 nM; in assay [6] it was 0.2 nM; in assay [7] (setting [8]), 1570 nM. Besides, the DC50 in assay [5] was 0.2 nM. Also, in assay [5], the “% Degradation at 3 μM” value turned out to be 81%.
For the compound `Nc1ccc(C2=C(c3ccc(O[C@H]4CCN(CCCF)C4)cc3)c3ccc(O)cc3SC2)c(F)n1` [Example 72, 3-(6-amino-2-fluoro-3-pyridyl)-4-[4-[(3S)-1-(3-fluoropropyl)pyrrolidin-3-yl]oxyphenyl]-2H-thiochromen-7-ol], the IC50 worked out at 202 nM in assay [1] (setting [8]); 108 nM in assay [2] (setting [8]); 2 nM in assay [3]; 1 nM in assay [4]; 0.5 nM in assay [6]; 11 nM in assay [7] (setting [8]). Further, the DC50 in assay [5] worked out at 0.2 nM. Further, the “% Degradation at 3 μM” value in assay [5] came to 91%.
For the compound `CC1(C)CNc2ccc(C3=C(c4ccc(O[C@H]5CCN(CCCF)C5)cc4)c4ccc(O)cc4SC3)cc21` [Example 73, 3-(3,3-dimethylindolin-5-yl)-4-[4-[(3S)-1-(3-fluoropropyl)pyrrolidin-3-yl]oxyphenyl]-2H-thiochromen-7-ol], the IC50 in assay [1] (setting [8]) is greater than 4000 nM; in assay [2] (setting [8]), greater than 4000 nM; in assay [3], 95 nM; in assay [4] it was 377 nM; in assay [6], 119 nM; in assay [7] (setting [8]) it was 1110 nM. In addition, in assay [5], the DC50 worked out at 6 nM. Further, the “% Degradation at 3 μM” value in assay [5] is 86%.
`CCN(CC)c1ccc(C2=C(c3ccc(O[C@H]4CCN(CCCF)C4)cc3)c3ccc(O)cc3SC2)c(F)c1` [Example 74, 3-[4-(diethylamino)-2-fluoro-phenyl]-4-[4-[(3S)-1-(3-fluoropropyl)pyrrolidin-3-yl]oxyphenyl]-2H-thiochromen-7-ol]: the IC50 is greater than 4000 nM in assay [1] (setting [8]); 2380 nM in assay [2] (setting [8]); 12 nM in assay [3]; 173 nM in assay [4]; 16 nM in assay [6]; 322 nM in assay [7] (setting [8]). In addition, the DC50 in assay [5] was found to be 4 nM. Also, in assay [5], the “% Degradation at 3 μM” value is reported as 83%.
In the case of `CC(C)(C)c1ccc(C2=C(c3ccc(O[C@H]4CCN(CCCF)C4)cc3)c3ccc(O)cc3SC2)c(F)n1` [Example 75, 3-(6-tert-butyl-2-fluoro-3-pyridyl)-4-[4-[(3S)-1-(3-fluoropropyl)pyrrolidin-3-yl]oxyphenyl]-2H-thiochromen-7-ol], the IC50 in assay [1] (setting [8]) was greater than 4000 nM; in assay [2] (setting [8]), greater than 4000 nM; in assay [3], 63 nM; in assay [4], greater than 999 nM; in assay [6] it was 74 nM; in assay [7] (setting [8]) it was 2490 nM. Besides, in assay [5], the DC50 was 27 nM. Also, in assay [5], the “% Degradation at 3 μM” value was 92%.
Regarding `CCOc1ccc(C2=C(c3cnc(O[C@H]4CCN(CCCF)C4)nc3)c3ccc(O)cc3SC2)c(F)n1` [Example 76, 3-(6-ethoxy-2-fluoro-3-pyridyl)-4-[2-[(3S)-1-(3-fluoropropyl)pyrrolidin-3-yl]oxypyrimidin-5-yl]-2H-thiochromen-7-ol], the IC50 was found to be 100 nM in assay [1] (setting [8]); 61 nM in assay [2] (setting [8]); 0.6 nM in assay [3]; 6 nM in assay [4]; 1 nM in assay [6]; 4 nM in assay [7] (setting [8]). Further, in assay [5], the DC50 is 0.6 nM. The “% Degradation at 3 μM” value in assay [5] was determined as 88%.
